This is an account of results in PubChem BioAssay AID1949 (Southern Research Institute, 2009).

Converted amounts (≈) assume the structure as drawn. Records with an inconclusive call do not appear. The source made the active and inactive calls. The rule behind the calls is not given here.

The test system of the test is M. tuberculosis H37Rv growth inhibition. In words: Mycobacterium tuberculosis H37Rv growth inhibition, cell based, confirmatory dose response (AID 1949).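 Note: bacteria grown 7 days with compound before Alamar blue readout.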
Turning to `O=C(NCC1COc2ccccc2O1)c1ccc(NC(=O)C2COc3ccccc3O2)cc1` (stereo unspecified), the IC50 (usually the concentration that gives 50% inhibition) is 1.94 mg/L (≈ 4.35 µM).
Turning to `O=C(CSc1ccccc1)c1ccc([N+](=O)[O-])cc1`, the IC50 is 9.78 mg/L (≈ 35.8 µM).
With `Cc1ccc(Cc2ccc(C(=O)Nc3ccc(C)c(C)c3)o2)cc1`, the IC50 was 0.18 mg/L (≈ 0.564 µM).
Regarding `Cc1cccc(OCC(O)CN2CCN(C(c3ccccc3)c3ccccc3)CC2)c1C` (stereo unspecified), the IC50 was 2.94 mg/L (≈ 6.83 µM).
To `CCN(CC)C(=S)NC(=O)c1ccc(Cl)cc1` belongs 1.43 mg/L (≈ 5.28 µM).
For the compound `CCN(CC)c1ccc(-n2nc3cc(C)c(N)cc3n2)c(C)c1`, the IC50 is 13.1 mg/L (≈ 42.3 µM).
With `C=CCn1c(-c2cccs2)nc2ccccc21` the figure was 1.86 mg/L (≈ 7.74 µM); with `O=C(c1ccccc1)c1ccc(OCC(O)Cn2cnc3ccccc32)cc1` (stereo unspecified), 1.51 mg/L (≈ 4.05 µM); with `CCOC(=O)Cc1ccc2c(=O)c(Oc3ccc(F)cc3)coc2c1`, 33 mg/L (≈ 96.3 µM).
Consider `COC(=O)C(CC(=O)c1ccc(Br)cc1)n1ccnc1` (stereo unspecified), for which the IC50 is 0.7 mg/L (≈ 2.08 µM).
With `Cc1ccc(-c2csc3nc4c5ccccc5c(NCCCN5CCOCC5)nn4c(=O)c23)cc1` the figure was > 50 mg/L (inactive); with `O=C(CSc1nnc(-c2ccccc2Cl)o1)Nc1ccccn1`, > 50 mg/L (inactive).
In the case of `Cc1ccc(-c2nn(-c3ccccc3)cc2CNCc2ccccc2)o1`, the IC50 was 9.25 mg/L (≈ 26.9 µM).
With `COc1cc(/C=C/c2ccc3cccc(OC)c3n2)c(Cl)cc1OC(C)=O` the figure was 35.3 mg/L (≈ 92 µM); with `CCOC(=O)c1ccc(NC(=O)CC2C(=O)N(Cc3ccccc3)C(=S)N2Cc2cccnc2)cc1` (stereo unspecified), 6.04 mg/L (≈ 12 µM).
With `O=c1oc(-c2ccccc2F)nc2sc3c(c12)CCCC3` the figure was > 50 mg/L (inactive).
To `CC(=O)N(C)c1ccc(OCC(O)Cn2c3ccc(Cl)cc3c3cc(Cl)ccc32)cc1` (stereo unspecified) belongs 2.96 mg/L (≈ 6.47 µM); to `O=C(NC(=S)N1CCc2ccccc21)c1ccccc1`, 1.45 mg/L (≈ 5.14 µM).
With `O=[N+]([O-])c1cccc(S(=O)(=O)Nc2cc(Br)c(O)c3ccccc23)c1`, the IC50 is 5.32 mg/L (≈ 12.6 µM).
As for `Cc1ccc2oc(=O)n(CCCOc3ccc(Cl)cc3)c2c1`, the IC50 is 2.98 mg/L (≈ 9.38 µM).
With `FC(F)(F)c1cccc(NC(=S)Nc2ccc(Cl)cc2Cl)c1` the figure was 12.1 mg/L (≈ 33.1 µM).
Consider `CNCc1ccc(OCc2ccc(Cl)cc2Cl)cc1`, for which the IC50 is 4.85 mg/L (≈ 16.4 µM).
Take `CC1(C)COC(/C=C/c2cccc([N+](=O)[O-])c2)=N1`: the IC50 was 11.6 mg/L (≈ 47.1 µM).
`COC(=O)COc1cccc(NC(=O)c2ccc(Cl)cc2)c1`: the IC50 was 0.21 mg/L (≈ 0.657 µM).
With `O=C(CCN1CCc2ccccc2C1)c1ccc2c(c1)OCCO2` the figure was 14.9 mg/L (≈ 46 µM); with `CCn1cc(C(=O)O)c(=O)c2cc(F)c(N3CCN(C(=O)Nc4ccccc4)CC3)cc21`, > 50 mg/L (inactive).
With `CC(Nc1nc(N2CCN(C(=O)c3ccc(Cl)cc3)CC2)nc2ccccc12)c1ccccc1` (stereo unspecified) the figure was 2.7 mg/L (≈ 5.72 µM).
With `NC(=O)c1c(NC(=O)c2c(F)c(F)c(F)c(F)c2F)sc2c1CCC2` the figure was 2.77 mg/L (≈ 7.36 µM); with `Cc1ccc(OCCN2CCN(c3nc(NCc4ccccc4)c4ccccc4n3)CC2)cc1`, 1.42 mg/L (≈ 3.13 µM).
Turning to `Clc1cc(Cl)c2c(c1)NC(c1cccnc1)C1CC=CC21` (stereo unspecified), the IC50 was 22.1 mg/L (≈ 69.6 µM).
As to `CCOC(=O)COc1ccc2cc(-c3nc4ccccc4s3)c(=O)oc2c1`, the IC50 was 1.35 mg/L (≈ 3.54 µM).
Regarding `CCCc1cc(C(N)=O)c(NC(=O)c2ccoc2C)s1`, the IC50 is 4.4 mg/L (≈ 15 µM).
For `CCOC(=O)c1ccc(NC(=S)NC(=O)CCc2ccccc2)cc1`, the IC50 was 1.76 mg/L (≈ 4.94 µM).
Turning to `CC(C)(C)c1ccc(OCCN2C(=O)C(=O)c3cc(Br)ccc32)cc1`, the IC50 was 1.49 mg/L (≈ 3.7 µM).
To `CCN1CCN(c2ccc(NC(=O)CC34CC5CC(CC(C5)C3)C4)cc2Cl)CC1` belongs 49.4 mg/L (≈ 119 µM); to `N#Cc1cccc(NC(=O)Nc2cccc(Cl)c2)c1`, 6.26 mg/L (≈ 23 µM); to `O=C(NCc1ccc(Cl)c(Cl)c1)C(Cl)Cl`, 10.6 mg/L (≈ 37.1 µM).
To `CCc1nc2sc(C(=O)NCc3ccc(F)cc3)c(N)c2c(C(F)(F)F)c1C` belongs 2.61 mg/L (≈ 6.34 µM).
For `O=C(CCN1C(=O)c2ccccc2C1=O)Oc1cccc2cccnc12`, the IC50 was 2.78 mg/L (≈ 8.03 µM).
As to `Cc1ccc(S(=O)(=O)NC(=O)Oc2cccc3cccnc23)cc1`, the IC50 was 3.32 mg/L (≈ 9.7 µM).
For `CSc1nsc(SCC(=O)c2ccccc2)n1`, the IC50 was 4.45 mg/L (≈ 15.8 µM).
To `CN1CCN(C(=S)NC(=O)c2ccc(-c3ccccc3)cc2)CC1` belongs 1.04 mg/L (≈ 3.06 µM); to `CCOC(=O)c1ccccc1OC(=O)c1c(F)c(F)c(F)c(F)c1F`, 9.77 mg/L (≈ 27.1 µM).
To `Cc1cc(N)cc(-c2nc3ccccc3o2)c1O` belongs 16.4 mg/L (≈ 68.4 µM); to `Cc1cc(Br)c2[nH]c(O)c(N=NC(=O)COc3ccc(C(C)(C)C)cc3C)c2c1`, 27 mg/L (≈ 59 µM).
Regarding `COc1ccc(-c2c(C)[nH]n3c(=O)c(Cc4ccccc4)c(C)nc23)cc1`, the IC50 was 1.28 mg/L (≈ 3.56 µM).
With `Cc1ccc(C(=O)Nc2nc(C(C)(C)C)cs2)cc1[N+](=O)[O-]` the figure was 27.2 mg/L (≈ 85.3 µM); with `Cc1ccc(NC(=O)C(Cl)Cl)cc1[N+](=O)[O-]`, 2.18 mg/L (≈ 8.29 µM).
For `Cc1ccc(-n2cnc3cc(NCc4cccs4)ccc32)cc1`, the IC50 was 2.87 mg/L (≈ 8.98 µM).
For `CC(C)(C)C(=O)Nc1nc2c(Cl)c(Cl)ccc2s1`, the IC50 is 7.02 mg/L (≈ 23.2 µM).
With `Cc1cccc(C(C)(C)C)c1OCCn1ccnc1` the figure was 8.23 mg/L (≈ 31.9 µM).
